Structures can show the parent of a compound that is named as a salt. Where two headings read alike, the source gives them in different places.
Tests used:
μ-opioid receptors = biological target: T1, μ-opioid receptors (Rattus norvegicus, UniProt P33535); assay: Opioid receptor binding studies on rat's brain homogenisates with [3H]DAMGO
T1 construct: from tissue; host or cells: rat brain homogenate

μ-receptors = biological target: T2, μ-receptors (Mus musculus, UniProt P42866); assay: Antagonistic activity in the vas deferens preparation of the mouse using DAMGO; assay type: biochemical; set-up: Ke (vM) (μ-receptors): unit not given here
T2 construct: Vas Deferens Preparation of the Mouse; from tissue; host or cells: mouse vas deferens
T2 sequence (P42866 whole entry): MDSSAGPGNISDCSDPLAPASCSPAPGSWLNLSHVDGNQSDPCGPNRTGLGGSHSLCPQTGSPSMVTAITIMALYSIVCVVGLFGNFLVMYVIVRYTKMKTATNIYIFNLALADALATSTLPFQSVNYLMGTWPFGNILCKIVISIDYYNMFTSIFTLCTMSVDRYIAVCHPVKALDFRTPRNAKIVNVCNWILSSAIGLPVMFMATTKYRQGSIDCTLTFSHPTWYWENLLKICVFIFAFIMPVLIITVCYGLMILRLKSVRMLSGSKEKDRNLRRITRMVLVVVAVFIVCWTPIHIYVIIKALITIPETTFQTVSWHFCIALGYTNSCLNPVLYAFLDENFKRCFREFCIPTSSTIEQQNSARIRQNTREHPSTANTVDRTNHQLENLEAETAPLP

mice [1] = assay: Hot-plate test (analgesia); assay type: in vivo, mouse; conditions: for ED50 (μg/kg, sc) / ED50: subcutaneous application; for ED50: Mus musculus, read-out: ED50 (μg/kg, sc); for ED50 / analgesic activity (in words): sc
Protocol: A test on mice (“hot-plate test”) was carried out as described earlier (E. L. May et al., J. Med. Chem. 2000; 43, 5030-5036).

mice [2] = assay: animal or person; assay type: in vivo; conditions: mouse tail flick test; for ED50 (μg/kg, sc) / ED50: subcutaneous application; for analgesic activity (in words) / ED50: sc; for ED50: read-out: ED50 (μg/kg, sc)
rats = assay: Rat tail flick test (analgesia); assay type: in vivo; conditions: for ED50 (μg/rat, icv): rats of 120 g; for ED50: sc, read-out: ED50 (μg/kg, sc)
Protocol: To determine the analgesic activity of quaternised compounds, a test on rats, the “Rat Tail Flick Test”, was used. The test was carried out as described earlier (Zs. Fürst et al., Eur. J. Pharmacol. 1993; 236: 209-215).

[3] = [3H]DAMGO as radio-ligand, rat's brain homogenisates, read-out: Ki (nM) (μ-receptors)
[4] = rat tail flick test, subcutaneous application
[5] = rat tail flick test, intracerebroventricular application

T1 sequence (P33535 whole entry): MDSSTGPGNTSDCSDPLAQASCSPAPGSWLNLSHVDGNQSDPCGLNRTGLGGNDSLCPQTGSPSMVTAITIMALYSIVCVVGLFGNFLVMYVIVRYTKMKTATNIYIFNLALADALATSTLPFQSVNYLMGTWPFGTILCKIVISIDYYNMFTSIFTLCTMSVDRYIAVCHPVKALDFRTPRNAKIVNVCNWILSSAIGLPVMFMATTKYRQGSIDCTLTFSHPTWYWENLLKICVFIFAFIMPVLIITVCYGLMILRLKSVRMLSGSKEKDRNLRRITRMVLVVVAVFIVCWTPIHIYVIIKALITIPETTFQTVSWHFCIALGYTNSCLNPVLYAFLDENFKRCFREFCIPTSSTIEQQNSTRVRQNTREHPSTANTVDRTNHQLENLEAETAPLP

## COc1c(O)ccc2c1[C@]13CCN(CC4CC4)[C@H](C2)[C@]1(OC)CCC(=O)C3 [3-hydroxycyprodime, reference compound]
μ-opioid receptors; [3]
  Ki: 6.15 nM
μ-opioid receptors; [3H]DAMGO, rat's brain homogenisates
  affinity to μ-opioid receptors (in words): clearly lower affinity
μ-receptors; antagonistic Ke against DAMGO
  Ke (vM) (μ-receptors): 5.62

## CO[C@@]12CCC(=O)[C@]3(C)Oc4c(O)ccc5c4[C@@]31CCN(C)[C@@H]2C5 [14-methoxymetopon, reference compound]
μ-opioid receptors; [3]
  Ki: 0.55 nM
Mice [1]
  ED50 (μg/kg, sc): 30 µg/kg
Mice [2]
  ED50 (μg/kg, sc): 30 µg/kg
rats; [4]
  ED50 (μg/kg, sc): 7.2 µg/kg

## COc1ccc2c3c1O[C@H]1C(=O)CC[C@@]4(OCCCc5ccccc5)[C@@H](C2)N(CCc2ccccc2)CC[C@]314 [Compound 4, 4,5α-epoxy-3-methoxy-17-(2-phenylethyl)-14β-(3-phenylpropyloxy)morphinan-6-one hydrochloride]
Mice [1]
  ED50: 60 µg/kg
  analgesic activity (in words): somewhat lower analgesic activity
Mice [2]
  analgesic activity (in words): somewhat lower analgesic activity
  ED50: 84 µg/kg

## C=CCN1CC[C@]23c4c5ccc(O)c4O[C@H]2C(=O)CC[C@@]3(OCCCc2ccccc2)[C@H]1C5 [Compound 6, 17-allyl-4,5α-epoxy-3-hydroxy-14β-(3-phenylpropyloxy)morphinan-6-one hydrochloride]
Mice [1]
  ED50: 5.9 µg/kg
Mice [2]
  ED50: 5.6 µg/kg

## O=C1CC[C@@]2(OCCCc3ccccc3)[C@H]3Cc4ccc(O)c5c4[C@@]2(CCN3CC2CCC2)[C@H]1O5 [Compound 7, 17-cyclobutylmethyl-4,5α-epoxy-3-hydroxy-14β-(3-phenylpropyloxy)morphinan-6-one hydrochloride]
Mice [1]
  ED50: 3.7 µg/kg
Mice [2]
  ED50: 8.2 µg/kg

## O=C1CC[C@@]2(OCCCc3ccccc3)[C@H]3Cc4ccc(O)c5c4[C@@]2(CCN3CC2CC2)[C@H]1O5 [Compound 8, 17-cyclopropylmethyl-4,5α-epoxy-3-hydroxy-14β-(3-phenylpropyloxy)morphinan-6-one hydrochloride]
μ-opioid receptors; [3]
  Ki: 0.34 nM
Mice [1]
  ED50: 2.3 µg/kg
Mice [2]
  ED50: 3.2 µg/kg

## O=C1CC[C@@]2(OCCCc3ccccc3)C3Cc4ccc(O)c5c4[C@@]2(CCN3CC2CCCO2)[C@H]1O5 (stereo partly drawn) [Compound 10, 4,5α-epoxy-17-[2-((R,S)-tetrahydrofuran-2-yl)methyl]-3-hydroxy-14β-(3-phenylpropyloxy)morphinan-6-one hydrochloride]
Mice [1]
  ED50: 1.3 µg/kg
Mice [2]
  ED50: 7 µg/kg

## CCCN1CC[C@]23c4c5ccc(O)c4O[C@H]2C(=O)CC[C@@]3(OCCCc2ccccc2)[C@H]1C5 [Compound 11, 4,5α-epoxy-3-hydroxy-14β-(3-phenylpropyloxy)-17-propylmorphinan-6-one hydrochloride]
Mice [1]
  ED50: 1.7 µg/kg
Mice [2]
  ED50: 1.6 µg/kg

## C#CCOc1ccc2c3c1O[C@@]1(C)C(=O)CC[C@@]4(OCCCc5ccccc5)[C@@H](C2)N(C)CC[C@]314.Cl [Compound 17, 4,5α-epoxy-5β,17-dimethyl-14β-[(3-phenylpropyl)oxy]-3-[(prop-2-inyl)oxy]morphinan-6-one hydrochloride]
μ-opioid receptors; [3]
  Ki: 0.73 nM
Mice [1]
  analgesic activity (in words): surprisingly high
  ED50 (μg/kg, sc): 38 µg/kg
Mice [2]
  ED50 (μg/kg, sc): 21 µg/kg

## COc1ccc2c3c1O[C@@]1(C)C(=O)CC[C@@]4(OCCCc5ccccc5)[C@@H](C2)N(C)CC[C@]314 [Compound 17a, 4,5α-epoxy-3-methoxy-5β,17-dimethyl-14β-[(3-phenylpropyl)oxy]morphinan-6-one]
μ-opioid receptors
  Ki: 0.62 nM
Mice [1]
  ED50: 2.6 µg/kg
Mice [2]
  ED50: 4.4 µg/kg
other
  melting point: 126 to 128 °C

## CN1CC[C@]23c4c5ccc(O)c4O[C@@]2(C)C(=O)CC[C@@]3(OCCCc2ccccc2)[C@H]1C5 [Compound 17b, 4,5α-epoxy-3-hydroxy-5β,17-dimethyl-14β-[(3-phenylpropyl)oxy]morphinan-6-one hydrobromide]
μ-opioid receptors
  Ki: 0.2 nM
Mice [1]
  ED50: 0.1 µg/kg

## COc1ccc2c(c1OC)[C@]13CCN(C)[C@H](C2)[C@]1(OCCCc1ccccc1)CCC(=O)[C@H]3C [Compound 32, 3,4-dimethoxy-5β,17-dimethyl-14β-[(3-phenylpropyl)oxy]morphinan-6-one hydrochloride]
Mice [1]
  ED50: 22 µg/kg
  analgesic activity (in words): somewhat lower analgesic activity
Mice [2]
  analgesic activity (in words): very high analgesic activity
  ED50: 14 µg/kg

## C[N+]1(C)CC[C@]23c4c5ccc(O)c4O[C@H]2C(=O)CC[C@@]3(OCCCc2ccccc2)[C@H]1C5.[I-] [Compound 38, 4,5α-epoxy-3-hydroxy-17,17-dimethyl-6-oxo-14β-[(3-phenylpropyl)oxy]morphinanium-iodide]
μ-opioid receptors
  Ki: 4.11 nM
rats; [5]
  ED50 (μg/rat, icv): 12 μg/rat
rats; [4]
  analgesic effect (in words): very high analgesic effect
  ED50: 120 µg/kg
other
  melting point: 164 to 170 °C

## C=CC[N@@+]1(C)CC[C@]23c4c5ccc(O)c4O[C@H]2C(=O)CC[C@@]3(OC)[C@H]1C5.[I-] [Compound 42, (17R)-17-allyl-4,5α-epoxy-3-hydroxy-14β-methoxy-17-methyl-6-oxomorphinanium-iodide]
μ-opioid receptors
  Ki: 5.93 nM
rats; inferred from icv versus sc activity
  ability to overcome the blood-brain barrier: only to a limited degree
rats; [5]
  analgesic activity (in words): extremely active
  ED50 (μg/rat, icv): 0.22 μg/rat
rats; [4]
  analgesic effect (in words): very high analgesic effect
  ED50: 16 µg/kg
other
  melting point: 178 to 181 °C

## C[N@+]1(CC2CC2)CC[C@]23c4c5ccc(O)c4O[C@H]2C(=O)CC[C@@]3(OCCCc2ccccc2)[C@H]1C5.[I-] [Compound 48, (17R)-17-cyclopropylmethyl-4,5α-epoxy-3-hydroxy-17-methyl-6-oxo-14β-[(3-phenylpropyl)oxy]morphinanium-iodide]
μ-opioid receptors
  Ki: 0.93 nM
μ-receptors; DAMGO
  antagonistic activity to μ-opioid receptors (in words): very high antagonistic activity
other
  melting point: 175 to 176 °C

## CN1CC[C@]23c4c5cccc4O[C@H]2C(=O)CC[C@@]3(OCCCc2ccccc2)[C@H]1C5 [Compound 53, 4,5α-epoxy-17-methyl-14β-[(3-phenylpropyl)oxy]morphinan-6-one]
Mice [1]
  ED50: 3 µg/kg
Mice [2]
  ED50: 0.4 µg/kg
other
  melting point: 105 to 109 °C

## CN1CC[C@]23c4c5ccc(O)c4O[C@H]2[C@@H](O)C=C[C@H]3[C@H]1C5 [Morphine, reference compound]
rats; [4]
  ED50: 1900 µg/kg

From patent US7655671B2, “Morphinan derivatives, the quaternary ammonium salts thereof substituted in position 14, method for production and use thereof” (priority 2002, dated 2010)
